Values joined by “and” are separate entries in the source; they are usually repeats but may differ in a detail not shown here. Equal entries are not always repeated. Toxic doses and inconclusive results are not listed.

This assay has as its system CD2F1 mice, ip Colon 26 adenocarcinoma, median survival T/C. Nature of the assay: NCI In Vivo Anticancer Drug Screen. Data for tumor model Colon 26 Adenocarcinoma (intraperitoneal) in CD2F1 (CDF1) mice. Conditions: endpoint: median survival time, higher = longer survival. How it is done:
The antitumor activity of compounds was measured in mice bearing transplantable tumors. Survival or tumor size were measured and the results are expressed as the measurement made in the treated group (T) divided by the measurement made in the vehicle treated control group (C). The tumor model used in this assay is Colon 26 Adenocarcinoma (intraperitoneal) in CD2F1 (CDF1) mice

Setting [1] is: dose: 40.0 mg/kg/injection, schedule: Q04DX003 (ip), vehicle: saline.

With `O=NN(CCCl)C(=O)NC1CCC(=O)NC1=O` (configuration not stated), the T/C (dose: 2.8 mg/kg/injection, schedule: Q04DX003 (ip), vehicle: saline with Tween-80) was 243 % of control; the T/C (dose: 5.1 mg/kg/injection, schedule: Q07DX002 (oral), vehicle: saline with Tween-80) was 179 % of control; the T/C (dose: 5.1 mg/kg/injection, schedule: Q07DX003 (oral), vehicle: saline with Tween-80) was 224 % of control; the T/C (dose: 5.1 mg/kg/injection, schedule: Q07DX004 (oral), vehicle: saline with Tween-80) is 215 % of control; the T/C (dose: 5.2 mg/kg/injection, schedule: Q04DX003 (oral), vehicle: saline with Tween-80) was 269 % of control; the T/C (dose: 5.6 mg/kg/injection, schedule: Q04DX003 (ip), vehicle: saline with Tween-80) is 269 % of control. The T/C (dose: 7.7 mg/kg/injection, schedule: Q01DX001 (oral), vehicle: saline with Tween-80) is 165 % of control; the T/C (dose: 7.7 mg/kg/injection, schedule: Q07DX002 (oral), vehicle: saline with Tween-80) was 204 % of control; the T/C (dose: 7.7 mg/kg/injection, schedule: Q07DX003 (oral), vehicle: saline with Tween-80) is 250 % of control; the T/C (dose: 7.7 mg/kg/injection, schedule: Q07DX004 (oral), vehicle: saline with Tween-80) was 265 % of control; the T/C (dose: 8.5 mg/kg/injection, schedule: Q04DX003 (oral), vehicle: saline with Tween-80) is 280 % of control; the T/C (dose: 11.25 mg/kg/injection, schedule: Q04DX003 (ip), vehicle: saline with Tween-80) is 269 % of control. For the same compound, the T/C reads like this: (dose: 11.5 mg/kg/injection, schedule: Q01DX001 (oral), vehicle: saline with Tween-80) 189 % of control; (dose: 11.5 mg/kg/injection, schedule: Q07DX002 (oral), vehicle: saline with Tween-80) 251 % of control; (dose: 11.5 mg/kg/injection, schedule: Q07DX003 (oral), vehicle: saline with Tween-80) 255 % of control; (dose: 11.5 mg/kg/injection, schedule: Q07DX004 (oral), vehicle: saline with Tween-80) 369 % of control; (dose: 13.6 mg/kg/injection, schedule: Q04DX003 (oral), vehicle: saline with Tween-80) 307 % of control; (dose: 17.4 mg/kg/injection, schedule: Q01DX001 (oral), vehicle: saline with Tween-80) 189 % of control. For the same compound, the T/C is 230 % of control (dose: 17.4 mg/kg/injection, schedule: Q07DX002 (oral), vehicle: saline with Tween-80); 369 % of control (dose: 17.4 mg/kg/injection, schedule: Q07DX003 (oral), vehicle: saline with Tween-80); 261 % of control (dose: 17.4 mg/kg/injection, schedule: Q07DX004 (oral), vehicle: saline with Tween-80); 210 % of control (dose: 26.0 mg/kg/injection, schedule: Q01DX001 (oral), vehicle: saline with Tween-80); 405 % of control (dose: 26.0 mg/kg/injection, schedule: Q07DX002 (oral), vehicle: saline with Tween-80); 184 % of control (dose: 26.0 mg/kg/injection, schedule: Q07DX003 (oral), vehicle: saline with Tween-80). The T/C (dose: 39.0 mg/kg/injection, schedule: Q01DX001 (oral), vehicle: saline with Tween-80) is 278 % of control.

In the case of `CN1C(=O)NC(c2ccc(Cl)cc2)(c2ccc(Cl)cc2)C1=O`, the T/C is 106 % of control (dose: 12.5 mg/kg/injection, schedule: Q04DX002 (ip), vehicle: distilled water + Tween-80); 105 % of control (dose: 12.5 mg/kg/injection, schedule: Q04DX002 (ip), vehicle: saline with Tween-80); 100 % of control (dose: 25.0 mg/kg/injection, schedule: Q04DX002 (ip), vehicle: distilled water + Tween-80); 111 % of control (dose: 25.0 mg/kg/injection, schedule: Q04DX002 (ip), vehicle: saline with Tween-80); 114 % of control (dose: 50.0 mg/kg/injection, schedule: Q04DX002 (ip), vehicle: distilled water + Tween-80); 97 % of control (dose: 50.0 mg/kg/injection, schedule: Q04DX002 (ip), vehicle: saline with Tween-80). The T/C (dose: 100.0 mg/kg/injection, schedule: Q04DX002 (ip), vehicle: saline with Tween-80) was 102 % of control; the T/C (dose: 200.0 mg/kg/injection, schedule: Q04DX002 (ip), vehicle: saline with Tween-80) was 91 % of control; the T/C (dose: 400.0 mg/kg/injection, schedule: Q04DX002 (ip), vehicle: saline with Tween-80) is 91 % of control.

Regarding `Nc1n[nH]c(N)n1`, the T/C under setting [1] was 105 % of control; the T/C (dose: 80.0 mg/kg/injection, schedule: Q04DX003 (ip), vehicle: saline) is 96 % of control; the T/C (dose: 100.0 mg/kg/injection, schedule: Q04DX003 (ip), vehicle: suspension in saline) was 95 % of control; the T/C (dose: 160.0 mg/kg/injection, schedule: Q04DX003 (ip), vehicle: saline) is 112 % of control; the T/C (dose: 200.0 mg/kg/injection, schedule: Q04DX003 (ip), vehicle: suspension in saline) is 104 % of control; the T/C (dose: 320.0 mg/kg/injection, schedule: Q04DX003 (ip), vehicle: saline) was 106 % of control. For the same compound, the T/C reads like this: (dose: 400.0 mg/kg/injection, schedule: Q04DX003 (ip), vehicle: suspension in saline) 105 % of control; (dose: 800.0 mg/kg/injection, schedule: Q04DX003 (ip), vehicle: suspension in saline) 108 % of control; (dose: 1600.0 mg/kg/injection, schedule: Q04DX003 (ip), vehicle: suspension in saline) 100 % of control.

Take `O=c1n(CC2CO2)c(=O)n(CC2CO2)c(=O)n1CC1CO1` (configuration not stated): the T/C reads like this: (dose: 25.0 mg/kg/injection, schedule: Q04DX003 (ip), vehicle: saline) 237 % of control; under setting [1], 292 % of control; (dose: 50.0 mg/kg/injection, schedule: Q04DX003 (ip), vehicle: saline) 237 % of control and 292 % of control; (dose: 60.0 mg/kg/injection, schedule: Q04DX003 (ip), vehicle: saline) 292 % of control; (dose: 100.0 mg/kg/injection, schedule: Q04DX003 (ip), vehicle: saline) 193 % of control and 237 % of control; (dose: 200.0 mg/kg/injection, schedule: Q04DX003 (ip), vehicle: saline) 237 % of control and 292 % of control. Besides, the T/C runs as follows: (dose: 300.0 mg/kg/injection, schedule: Q04DX003 (ip), vehicle: saline) 292 % of control; (dose: 400.0 mg/kg/injection, schedule: Q04DX003 (ip), vehicle: saline) 213 % of control and 292 % of control.

Take `COC12[C@@H]3N[C@@H]3CN1C1=C(C(=O)C(NCCSSCCNC3=C(C)C(=O)C4=C(C3=O)C(COC(N)=O)[C@]3(OC)C5N[C@@H]5CN43)=C(C)C1=O)[C@@H]2COC(N)=O` (some centres not stated): the T/C (dose: 1.0 mg/kg/injection, schedule: Q01DX004 (ip), vehicle: other) was 94 % of control; the T/C (dose: 2.0 mg/kg/injection, schedule: Q01DX004 (ip), vehicle: other) was 99 % of control; the T/C (dose: 2.0 mg/kg/injection, schedule: Q03DX002 (ip), vehicle: other) is 100 % of control; the T/C (dose: 4.0 mg/kg/injection, schedule: Q01DX004 (ip), vehicle: other) was 107 % of control; the T/C (dose: 4.0 mg/kg/injection, schedule: Q03DX002 (ip), vehicle: other) is 117 % of control; the T/C (dose: 6.0 mg/kg/injection, schedule: Q01DX004 (ip), vehicle: other) was 101 % of control. In addition, the T/C runs as follows: (dose: 6.0 mg/kg/injection, schedule: Q01DX005 (ip), vehicle: other) 96 % of control; (dose: 9.0 mg/kg/injection, schedule: Q01DX005 (ip), vehicle: other) 96 % of control; (dose: 9.0 mg/kg/injection, schedule: Q03DX002 (ip), vehicle: other) 110 % of control; (dose: 15.0 mg/kg/injection, schedule: Q01DX005 (ip), vehicle: other) 106 % of control.

As to `Oc1cc2c3c(c1)c1cc4c(cc1c[n+]3CC2)OCO4`, the T/C (dose: 6.25 mg/kg/injection, schedule: Q04DX003 (ip), vehicle: distilled water + Tween-80) is 118 % of control and the T/C (dose: 100.0 mg/kg/injection, schedule: Q04DX003 (ip), vehicle: distilled water + Tween-80) is 118 % of control.

For the compound `CSC1SCC2C(=O)N(C)C(C(C)C)C(=O)OCC(NC(=O)c3cnc4ccccc4n3)C(=O)NC(C)C(=O)N(C)C1C(=O)N(C)C(C(C)C)C(=O)OCC(NC(=O)c1cnc3ccccc3n1)C(=O)NC(C)C(=O)N2C` (configuration not stated), the T/C was 87 % of control (dose: 25.0 micrograms/kg/injection, schedule: Q01DX004 (ip), vehicle: saline sonified); 86 % of control (dose: 100.0 micrograms/kg/injection, schedule: Q01DX004 (ip), vehicle: saline sonified); 94 % of control (dose: 100.0 micrograms/kg/injection, schedule: Q03DX002 (ip), vehicle: saline sonified); 90 % of control (dose: 150.0 micrograms/kg/injection, schedule: Q03DX002 (ip), vehicle: saline sonified).

(Values after PubChem BioAssay AID210 (DTP/NCI, 2004).)
